Reference: patent US12527849B2, “Apparatus for determining administration form of a composition of an engineered virus-based nanoparticle for a treatment of an autoimmune condition” (Diamante Srl, priority 2021, dated 2026)

Tested on: NOD mice
Experiment: Diabetes-free survival of NOD mice (Kaplan-Meier analysis, log-rank test)
Format: in vivo
Conditions: two i.p. treatments, 2 weeks between doses, 50 μg per mouse
Description: With continued reference to FIG. 1, as another non-limiting example, administration 116 of composition of the engineered virus-based nanoparticle for a treatment of an autoimmune disease may be done to nonobese diabetic (NOD) mice. In another non-limiting example, administration 116 of composition of the engineered virus-based nanoparticle for a treatment of an autoimmune disease may be done to any animal disclosed in this disclosure, such as but not limited to a human. Four-week-old female NOD mice may be obtained from Charles River Laboratories and may be housed under specific pathogen-free conditions in the animal facility at the University of Perugia, with ad libitum access to water and food. NOD mice may be randomly subdivided into four groups. In group 1 (n=18), CPMV·p524opt [50 μg per mouse, resuspended in 100 μl of phosphate-buffered saline (PBS)] may be injected twice intraperitoneally, with 2 weeks between doses. […] Mice may be monitored for the appearance of clinical signs of diabetes and may be euthanized when the disease was confirmed by glucosuria. […]
With continued reference to FIG. 1, in some embodiments, processor 104 may determine critical administration 124 as a function of a statistical comparison between administration groups 132. […] As a non-limiting example, a Kaplan-Meier analysis may be calculated using the following formula: […]

p524opt: p524 sequence adjusted to a pI of 8.59 (SEQ ID NO. 2), synthetic peptide given with IFA (DSRLSKVAPVIKARMMED)
protection from the onset of diabetes (in words): no protective effect
